In patent US12252524B2, “GIP/GLP1 co-agonist compounds” (Eli Lilly and Company, priority 2018, dated 2025):
Numbered stars: 1 amine (or outer) side, 2 acyl side, 3 side chain; on linkers, the order of the positions; unused ones are H or OH. Square brackets hold non-standard residues; d marks the D form. Side chains are listed from the residue outwards. Peptide text beside a SMILES is read from it. * marks the point of attachment. C20 diacid = O=C(O)CCCCCCCCCCCCCCCCCCC(=O)*; γGlu = O=C(O)[C@H](CCC(=O)[*:2])N[*:1]; AEEA = NCCOCCOCC(=O)O; Aib = CC(C)(N)C(=O)O

Legend:
human GLP-1R = human GLP-1R (Homo sapiens, UniProt P43220); assay: [125I]-GLP-1 binding (SPA), human GLP-1 receptor; set-up: expressed in transfected cells; crude membranes; conditions: read-out: hGLP1R Ki, (nM) (SEM, n)
Procedure, shortened: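 Membranes: hypotonic lysis (50 mM Tris HCl, pH 7.5, protease inhibitors), Potter-Elvehjem homogenization, high-speed pellet (35000×g 1 h or 25000×g 30 min, 4° C.). Buffer: 25 mM HEPES pH 7.4, 2.5 mM CaCl2, 1 mM MgCl2. Four-parameter IC50 fit; Ki as geometric mean ± SEM.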

human Gcg receptor = target: T1, human Gcg receptor (Homo sapiens, UniProt P47871); assay: [125I]-Glucagon binding (SPA), human Gcg receptor; conditions: read-out: hGLcgR Ki, nM (SEM, n)
T1 construct: expressed in transfected cells; crude membranes
Procedure, shortened: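 Cell pellets were lysed in hypotonic Tris buffer, pH 7.5, homogenized, and spun at low then high speed to give crude membranes. Ki was derived from the fitted IC50.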

human GIP receptor = target: T2, human GIP receptor (Homo sapiens, UniProt P48546); assay: [125I]-GIP binding (SPA), human GIP receptor; conditions: read-out: hGIPR Ki, nM (SEM, n)
T2 construct: expressed in transfected cells; crude membranes
T2 sequence (P48546 22-466): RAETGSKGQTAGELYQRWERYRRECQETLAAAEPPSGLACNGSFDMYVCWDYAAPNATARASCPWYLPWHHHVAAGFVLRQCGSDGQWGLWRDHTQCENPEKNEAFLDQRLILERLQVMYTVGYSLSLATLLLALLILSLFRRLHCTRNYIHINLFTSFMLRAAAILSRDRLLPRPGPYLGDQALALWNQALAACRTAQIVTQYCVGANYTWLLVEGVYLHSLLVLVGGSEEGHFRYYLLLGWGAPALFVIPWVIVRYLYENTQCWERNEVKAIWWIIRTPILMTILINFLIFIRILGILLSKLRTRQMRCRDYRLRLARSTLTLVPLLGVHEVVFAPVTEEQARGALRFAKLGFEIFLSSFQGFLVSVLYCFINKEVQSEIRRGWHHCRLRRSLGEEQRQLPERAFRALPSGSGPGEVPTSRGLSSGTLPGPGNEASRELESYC

[1] = target: T3, gastric inhibitory peptide receptor (GIPR) (Homo sapiens, UniProt P48546); assay: cAMP pharmacological functional assay in presence of casein, hGIPR; assay type: cell-based; conditions: HEK293 cells expressing hGIPR, 0.1% Casein, geometric mean; read-out: hGIPR cAMP Rel EC50 nM (SEM, n)
T3 sequence (P48546 22-466): T2 sequence (P48546 22-466)

[2] = target: human GLP-1 receptor (GLP-1R) (Homo sapiens, UniProt P43220); assay: cAMP pharmacological functional assay in presence of casein, hGLP-1R; assay type: cell-based; conditions: HEK293 cells expressing hGLP-1R, 0.1% Casein, geometric mean; read-out: hGLP1R cAMP Rel EC50 nM (SEM, n)
Sequence of human GLP-1 receptor (GLP-1R) (P43220 24-463): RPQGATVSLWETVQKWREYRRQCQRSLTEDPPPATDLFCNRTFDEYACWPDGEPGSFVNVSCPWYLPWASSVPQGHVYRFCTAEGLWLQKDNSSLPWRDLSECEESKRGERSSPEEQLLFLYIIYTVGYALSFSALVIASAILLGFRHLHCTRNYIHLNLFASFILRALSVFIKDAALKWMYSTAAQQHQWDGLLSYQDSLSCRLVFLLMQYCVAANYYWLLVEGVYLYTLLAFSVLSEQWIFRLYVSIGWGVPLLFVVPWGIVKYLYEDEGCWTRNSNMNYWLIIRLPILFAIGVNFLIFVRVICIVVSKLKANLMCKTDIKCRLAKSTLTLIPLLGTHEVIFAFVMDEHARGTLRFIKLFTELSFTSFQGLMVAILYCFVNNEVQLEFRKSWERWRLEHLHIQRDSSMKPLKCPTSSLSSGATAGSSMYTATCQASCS

Sequence of human GLP-1R (P43220 24-463): as above
T1 sequence (P47871 26-477): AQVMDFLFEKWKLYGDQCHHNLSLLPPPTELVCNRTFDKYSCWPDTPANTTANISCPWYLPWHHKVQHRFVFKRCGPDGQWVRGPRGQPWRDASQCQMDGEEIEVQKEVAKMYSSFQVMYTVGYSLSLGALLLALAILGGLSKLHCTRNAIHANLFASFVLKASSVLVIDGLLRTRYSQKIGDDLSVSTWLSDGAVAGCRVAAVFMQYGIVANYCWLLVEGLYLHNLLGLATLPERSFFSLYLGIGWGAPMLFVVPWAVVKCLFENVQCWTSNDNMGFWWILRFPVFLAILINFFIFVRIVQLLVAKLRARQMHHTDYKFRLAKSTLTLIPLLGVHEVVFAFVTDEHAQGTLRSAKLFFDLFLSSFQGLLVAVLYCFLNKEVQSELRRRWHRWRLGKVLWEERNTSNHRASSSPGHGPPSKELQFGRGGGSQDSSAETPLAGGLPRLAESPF

What does the source list for CC[C@H](C)[C@H](NC(=O)[C@H](CC(C)C)NC(=O)C(C)(Cc1ccc(O)cc1)NC(=O)[C@@H](CCC(=O)O)NC(=O)[C@@H](NC(=O)[C@H](Cc1ccccc1)NC(=O)[C@H](C)NC(=O)C(C)(C)NC(=O)[C@H](CCC(N)=O)NC(=O)[C@H](C)NC(=O)[C@H](CCCCNC(=O)COCCOCCNC(=O)COCCOCCNC(=O)[C@@H](N)CCCCNC(=O)CCCCCCCCCCCCCCCCCCC(=O)O)NC(=O)[C@H](CCCN)NC(=O)[C@H](CC(=O)O)NC(=O)[C@H](CC(C)C)NC(=O)C(C)(CC(C)C)NC(=O)[C@@H](NC(=O)[C@H](CO)NC(=O)[C@H](Cc1ccncc1)NC(=O)[C@H](CC(=O)O)NC(=O)[C@H](CO)NC(=O)[C@@H](NC(=O)C(C)(Cc1ccccc1F)NC(=O)[C@@H](NC(=O)CNC(=O)[C@H](CCC(=O)O)NC(=O)C(C)(C)NC(=O)[C@@H](N)Cc1ccc(O)cc1)[C@@H](C)O)[C@@H](C)O)[C@@H](C)CC)[C@@H](C)CC)C(=O)N[C@@H](CCC(=O)O)C(=O)NCC(=O)NCC(=O)N1CCC[C@H]1C(=O)N[C@@H](CO)C(=O)N[C@@H](CO)C(=O)NCC(=O)N[C@@H](C)C(=O)N1CCC[C@H]1C(=O)N1CCC[C@H]1C(=O)N1CCC[C@H]1C(=O)N[C@@H](CO)C(N)=O (stereo partly shown) [Example 251]?
Ki (human GLP-1R): 1.09 nM; Ki (human Gcg receptor): 21.2 nM; Ki (human GIP receptor): 0.0249 nM; EC50 [1]: 0.0292 nM; EC50 [2]: 0.081 nM

With CC[C@H](C)[C@H](NC(=O)[C@H](CC(C)C)NC(=O)C(C)(Cc1ccc(O)cc1)NC(=O)[C@@H](CCC(=O)O)NC(=O)[C@@H](NC(=O)[C@H](Cc1ccccc1)NC(=O)[C@H](C)NC(=O)C(C)(C)NC(=O)[C@H](CCC(N)=O)NC(=O)[C@H](C)NC(=O)[C@H](CCCCNC(=O)COCCOCCNC(=O)COCCOCCNC(=O)[C@@H](N)CCCCNC(=O)CCCCCCCCCCCCCCCCCCC(=O)O)NC(=O)[C@H](CCCN)NC(=O)[C@H](CC(=O)O)NC(=O)[C@H](CC(C)C)NC(=O)C(C)(CC(C)C)NC(=O)[C@@H](NC(=O)[C@H](CO)NC(=O)[C@H](Cc1ccncc1)NC(=O)[C@H](CC(=O)O)NC(=O)[C@H](CO)NC(=O)[C@@H](NC(=O)C(C)(Cc1ccccc1F)NC(=O)[C@@H](NC(=O)CNC(=O)[C@H](CCC(=O)O)NC(=O)C(C)(C)NC(=O)[C@@H](N)Cc1ccc(O)cc1)[C@@H](C)O)[C@@H](C)O)[C@@H](C)CC)[C@@H](C)CC)C(=O)N[C@@H](C)C(=O)NCC(=O)NCC(=O)N1CCC[C@H]1C(=O)N[C@@H](CO)C(=O)N[C@@H](CO)C(=O)NCC(=O)N[C@@H](C)C(=O)N1CCC[C@H]1C(=O)N1CCC[C@H]1C(=O)N1CCC[C@H]1C(=O)N[C@@H](CO)C(N)=O (stereo partly shown) [Example 252] as the molecule, how does the Ki (human GLP-1R) read?
The Ki was 0.383 nM.

And the Ki (human Gcg receptor)?
The Ki was 26 nM.

And the Ki (human GIP receptor)?
Its Ki is 0.00971 nM.

And the EC50 [1]?
The EC50 was 0.093 nM.

What about the EC50 [2] of the same molecule?
Its EC50 is 0.0483 nM.

With CC[C@H](C)[C@H](NC(=O)[C@H](CC(C)C)NC(=O)[C@H](Cc1ccc(O)cc1)NC(=O)[C@H](CCC(=O)O)NC(=O)[C@@H](NC(=O)[C@H](Cc1ccccc1)NC(=O)[C@H](C)NC(=O)[C@H](C)NC(=O)[C@H](CCC(N)=O)NC(=O)[C@H](C)NC(=O)[C@H](CCCCNC(=O)COCCOCCNC(=O)COCCOCCNC(=O)CC[C@H](NC(=O)CCCCCCCCCCCCCCCCCCC(=O)O)C(=O)O)NC(=O)[C@H](CCCCN)NC(=O)[C@H](CC(=O)O)NC(=O)[C@H](CC(C)C)NC(=O)[C@H](CC(C)C)NC(=O)[C@@H](NC(=O)[C@H](CO)NC(=O)[C@H](Cc1ccc(O)cc1)NC(=O)[C@H](CC(=O)O)NC(=O)[C@H](CO)NC(=O)[C@@H](NC(=O)[C@H](Cc1ccccc1)NC(=O)[C@@H](NC(=O)CNC(=O)[C@H](CCC(=O)O)NC(=O)C(C)(C)NC(=O)[C@@H](N)Cc1ccc(O)cc1)[C@@H](C)O)[C@@H](C)O)[C@@H](C)CC)[C@@H](C)CC)C(=O)N[C@@H](CCC(=O)O)C(=O)NCC(=O)NCC(=O)N1CCC[C@H]1C(=O)N[C@@H](CO)C(=O)N[C@@H](CO)C(=O)NCC(=O)N[C@@H](C)C(=O)N1CCC[C@H]1C(=O)N1CCC[C@H]1C(=O)N1CCC[C@H]1C(=O)N[C@@H](CO)C(N)=O [Example 253] (H-Y[Aib]EGTFTSDYSILLDKK([AEEA-AEEA-γGlu-C20 diacid])AQAAFIEYLIEGGPSSGAPPPS-NH2) as the molecule, how does the Ki (human GLP-1R) read?
The Ki was 2.57 nM.

And the Ki (human Gcg receptor)?
Its Ki is over 912 nM.

And the Ki (human GIP receptor)?
The Ki was 0.138 nM.

And the EC50 [1]?
The EC50 was 0.219 nM.

And the EC50 [2]?
The EC50 was 0.109 nM.

How did the Ki (human GLP-1R) turn out when CC[C@H](C)[C@H](NC(=O)[C@H](CC(C)C)NC(=O)[C@H](Cc1ccc(O)cc1)NC(=O)[C@H](CCC(=O)O)NC(=O)[C@@H](NC(=O)[C@H](Cc1ccccc1)NC(=O)[C@H](C)NC(=O)[C@H](CCC(N)=O)NC(=O)[C@H](CCC(N)=O)NC(=O)[C@H](C)NC(=O)[C@H](CCCCNC(=O)COCCOCCNC(=O)COCCOCCNC(=O)CC[C@H](NC(=O)CCCCCCCCCCCCCCCCCCC(=O)O)C(=O)O)NC(=O)[C@H](CCCCN)NC(=O)[C@H](CC(=O)O)NC(=O)[C@H](CC(C)C)NC(=O)[C@H](CC(C)C)NC(=O)[C@@H](NC(=O)[C@H](CO)NC(=O)[C@H](Cc1ccc(O)cc1)NC(=O)[C@H](CC(=O)O)NC(=O)[C@H](CO)NC(=O)[C@@H](NC(=O)[C@H](Cc1ccccc1)NC(=O)[C@@H](NC(=O)CNC(=O)[C@H](CCC(=O)O)NC(=O)C(C)(C)NC(=O)[C@@H](N)Cc1ccc(O)cc1)[C@@H](C)O)[C@@H](C)O)[C@@H](C)CC)[C@@H](C)CC)C(=O)N[C@@H](CCC(=O)O)C(=O)NCC(=O)NCC(=O)N1CCC[C@H]1C(=O)N[C@@H](CO)C(=O)N[C@@H](CO)C(=O)NCC(=O)N[C@@H](C)C(=O)N1CCC[C@H]1C(=O)N1CCC[C@H]1C(=O)N1CCC[C@H]1C(=O)N[C@@H](CO)C(N)=O [Example 254] (H-Y[Aib]EGTFTSDYSILLDKK([AEEA-AEEA-γGlu-C20 diacid])AQQAFIEYLIEGGPSSGAPPPS-NH2) was run?
Its Ki is 2.58 nM.

What about the Ki (human Gcg receptor) of the same molecule?
Its Ki is 148 nM.

And the Ki (human GIP receptor)?
The Ki was 0.108 nM.

And the EC50 [1]?
The EC50 was 0.215 nM.

What about the EC50 [2] of the same molecule?
Its EC50 is 0.0553 nM.

For CC[C@H](C)[C@H](NC(=O)[C@H](CC(C)C)NC(=O)[C@H](Cc1ccc(O)cc1)NC(=O)[C@H](CCC(=O)O)NC(=O)[C@@H](NC(=O)[C@H](Cc1ccccc1)NC(=O)[C@H](C)NC(=O)[C@H](Cc1c[nH]cn1)NC(=O)[C@H](CCC(N)=O)NC(=O)[C@H](C)NC(=O)[C@H](CCCCNC(=O)COCCOCCNC(=O)COCCOCCNC(=O)CC[C@H](NC(=O)CCCCCCCCCCCCCCCCCCC(=O)O)C(=O)O)NC(=O)[C@H](CCCCN)NC(=O)[C@H](CC(=O)O)NC(=O)[C@H](CC(C)C)NC(=O)[C@H](CC(C)C)NC(=O)[C@@H](NC(=O)[C@H](CO)NC(=O)[C@H](Cc1ccc(O)cc1)NC(=O)[C@H](CC(=O)O)NC(=O)[C@H](CO)NC(=O)[C@@H](NC(=O)[C@H](Cc1ccccc1)NC(=O)[C@@H](NC(=O)CNC(=O)[C@H](CCC(=O)O)NC(=O)C(C)(C)NC(=O)[C@@H](N)Cc1ccc(O)cc1)[C@@H](C)O)[C@@H](C)O)[C@@H](C)CC)[C@@H](C)CC)C(=O)N[C@@H](CCC(=O)O)C(=O)NCC(=O)NCC(=O)N1CCC[C@H]1C(=O)N[C@@H](CO)C(=O)N[C@@H](CO)C(=O)NCC(=O)N[C@@H](C)C(=O)N1CCC[C@H]1C(=O)N1CCC[C@H]1C(=O)N1CCC[C@H]1C(=O)N[C@@H](CO)C(N)=O [Example 255] (H-Y[Aib]EGTFTSDYSILLDKK([AEEA-AEEA-γGlu-C20 diacid])AQHAFIEYLIEGGPSSGAPPPS-NH2; N-terminus assumed), which Ki (human GLP-1R) is on record?
The Ki was 2.58 nM.

What about the Ki (human Gcg receptor) of the same molecule?
Its Ki is 257 nM.

And the Ki (human GIP receptor)?
Its Ki is 0.0772 nM.

What about the EC50 [1] of the same molecule?
The EC50 was 0.102 nM.

What about the EC50 [2] of the same molecule?
Its EC50 is 0.0407 nM.
